Source: patent US20100261734A1, “Methods of Treating Bladder Dysfunction Using Netupitant” (Helsinn Healthcare S.A., priority 2009, published 2010)
Read-outs that look alike come from different tables or passages of the source. Values belong to the molecule of their own block, whether it stands above or below them.

Tests used:
[1] = tested on: acetic acid (AA)-induced overactive bladder (OAB); experiment: Cystometric parameters in acetic acid (AA)-induced overactive bladder (OAB) in anesthetized guinea-pigs; assay type: in vivo; settings: for Maximal ICI (intercontraction interval) increase, % of variation from basal values: 0.2% AA bladder infusion, anesthetized guinea-pigs; for Effect on ICI (intercontraction interval): from 10 min up to 60 min post-administration, 0.2% AA
From the text: The effect of netupitant (N) was studied on cystometric parameters in acetic acid (AA)-induced overactive bladder (OAB) in anesthetized guinea-pigs. Results were compared with those obtained with a control and L-733,060 (L), another potent and selective NK1 receptor antagonist. Adult female guinea-pigs were anesthetized with urethane, and the jugular vein and urinary bladder were catheterized for drug administration and intravesical pressure recording, respectively. The urinary bladder was continuously infused with either saline or 0.2% AA. After 30 min stabilization, N, L or their vehicle (glucose 5%) were administered in separate animals (n=10 per group). Intercontraction interval (ICI, sec), and amplitude of micturition (AM, mmHg) were analyzed at 10, 20, 40 and 60 min post administration. For each dose, maximal effects were expressed as % of variation from respective basal values. ED50% (doses inducing a 50% increase in ICI) were calculated using linear regressions.

[2] = Pharmacokinetic profile of netupitant in humans after a single oral dose; assay type: in vivo; settings: for Cl/F / Kel / tlag / AUC(0-inf) / AUC(0-t) / Cmax / Tmax / half-life / Vd/F: healthy volunteers, mean, N = 4; for AUC(0-inf) / AUC(0-t) / Cmax / Tmax / half-life / Vd/F: human, plasma; for Vd/F: read-out: Vz/F
Method: The pharmacokinetic profile of netupitant (N) in humans was examined in a randomised, double-blind, placebo controlled study comprising 5 dose groups (10, 30, 100, 300 and 450 mg) with 6 subjects in each group, of whom four received netupitant and two received placebo.

Compound: FC(F)(F)c1cc(CO[C@H]2CCCN[C@H]2c2ccccc2)cc(C(F)(F)F)c1 [L-733,060, reference compound]
- Maximal ICI (intercontraction interval) increase, % of variation from basal values ([1]; 3 mg/kg i.v.): +40±10%
- Maximal ICI (intercontraction interval) increase, % of variation from basal values ([1]; 10 mg/kg i.v.): +76±11%
- Maximal effect on amplitude of micturition (AM), % of variation from basal values ([1]; 10 mg/kg, 10 min after administration): −28±5%
- Effect on amplitude of micturition (AM) ([1]; 10 mg/kg, p<0.05 versus basal values): decreased significantly AM
- Effect on ICI (intercontraction interval) [1]: dose-dependently and significantly increased ICI
- ED50% (dose inducing a 50% increase in ICI) ([1]; i.v., calculated using linear regressions): 5.13 mg/kg

- Cl/F ([2]; 10 mg oral): 44.0 L/h
- Kel ([2]; 10 mg oral): 0.0435 h⁻¹
- tlag ([2]; 10 mg oral): 1.88 h
- Cl/F ([2]; 30 mg oral): 35.5 L/h
- Kel ([2]; 30 mg oral): 0.027 h⁻¹
- tlag ([2]; 30 mg oral): 1.75 h
- Cl/F ([2]; 100 mg oral): 22.1 L/h
- Kel ([2]; 100 mg oral): 0.0139 h⁻¹
- tlag ([2]; 100 mg oral): 1.88 h
- Cl/F ([2]; 300 mg oral): 12.6 L/h
- Kel ([2]; 300 mg oral): 0.0154 h⁻¹
- tlag ([2]; 300 mg oral): 0.81 h
- Cl/F ([2]; 450 mg oral): 10.6 L/h
- Kel ([2]; 450 mg oral): 0.0124 h⁻¹
- tlag ([2]; 450 mg oral): 1.26 h
- AUC(0-inf) ([2]; 10 mg oral): 233 ng·h/mL
- AUC(0-t) ([2]; 10 mg oral): 140 ng·h/mL
- Cmax ([2]; 10 mg oral): 8.76 ng/mL
- Tmax ([2]; 10 mg oral): 5.75 h
- half-life ([2]; 10 mg oral): 16 h
- Vd/F ([2]; 10 mg oral): 1010 L
- AUC(0-inf) ([2]; 30 mg oral): 995 ng·h/mL
- AUC(0-t) ([2]; 30 mg oral): 870 ng·h/mL
- Cmax ([2]; 30 mg oral): 36 ng/mL
- Tmax ([2]; 30 mg oral): 5.76 h
- half-life ([2]; 30 mg oral): 29.1 h
- Vd/F ([2]; 30 mg oral): 1320 L
- AUC(0-inf) ([2]; 100 mg oral): 4800 ng·h/mL
- AUC(0-t) ([2]; 100 mg oral): 4360 ng·h/mL
- Cmax ([2]; 100 mg oral): 168 ng/mL
- Tmax ([2]; 100 mg oral): 5 h
- half-life ([2]; 100 mg oral): 54.2 h
- Vd/F ([2]; 100 mg oral): 1710 L
- AUC(0-inf) ([2]; 300 mg oral): 25200 ng·h/mL
- AUC(0-t) ([2]; 300 mg oral): 23100 ng·h/mL
- Cmax ([2]; 300 mg oral): 747 ng/mL
- Tmax ([2]; 300 mg oral): 5 h
- half-life ([2]; 300 mg oral): 48.1 h
- Vd/F ([2]; 300 mg oral): 850 L
- AUC(0-inf) ([2]; 450 mg oral): 43700 ng·h/mL
- AUC(0-t) ([2]; 450 mg oral): 36600 ng·h/mL
- Cmax ([2]; 450 mg oral): 1130 ng/mL
- Tmax ([2]; 450 mg oral): 5.76 h
- half-life ([2]; 450 mg oral): 59.7 h
- Vd/F ([2]; 450 mg oral): 881 L
- Plasma exposure (Cmax and AUC) versus dose ([2]; oral 10-450 mg, humans): increased super-proportionally with dose
- Time at which maximum plasma levels are reached post-dose ([2]; oral administration, humans): approximately 5 hours
Compound: Cc1ccccc1-c1cc(N2CCN(C)CC2)ncc1N(C)C(=O)C(C)(C)c1cc(C(F)(F)F)cc(C(F)(F)F)c1 [netupitant, 2-[3,5-bis(trifluoromethyl)phenyl]-N,2-dimethyl-N-[4-(2-methylphenyl)-6-(4-methylpiperazin-1-yl)pyridin-3-yl]propanamide]
- Maximal ICI (intercontraction interval) increase, % of variation from basal values ([1]; 0.1 mg/kg i.v.): +51±15%
- Maximal ICI (intercontraction interval) increase, % of variation from basal values ([1]; 0.3 mg/kg i.v.): +44±8%
- Maximal ICI (intercontraction interval) increase, % of variation from basal values ([1]; 1 mg/kg i.v.): +69±8%
- Maximal effect on amplitude of micturition (AM), % of variation from basal values ([1]; 1 mg/kg, 20 min after administration): −13±6%
- Maximal ICI (intercontraction interval) increase, % of variation from basal values ([1]; 3 mg/kg i.v.): +96±20%
- ED50 ([1]; Cavia porcellus, iv, calculated using linear regressions, read-out: ED50% (dose inducing a 50% increase in ICI)): 0.62 mg/kg
- Potency relative to L in view of ED50% values ([1]; N versus L): about 16 fold
- Effect on amplitude of micturition (AM) ([1]; doses 0.1-3 mg/kg): devoid of significant effect on AM
- Effect on ICI (intercontraction interval) [1]: dose-dependently and significantly increased ICI
